Assay results from US10781224B2, “Bis(oxymethyl)phosphinic acid and biogenic metal salts thereof as regulators of plant growth and development” (priority 2016, dated 2020).
“And” between values parts separate entries of the source, which are not always exact repeats. Equal entries are not always repeated.

Columns and labels:
[1] = system: winter wheat (Vershin variety); test: Winter wheat seed treatment with BHMPA salts: germination energy and germination rate; format: in vivo
How it was run: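 Corn, winter wheat and rice seeds (50 per dish, on filter paper) were soaked for 1 h in BHMPA or its metal salts at 1·10^−6-1·10^−12%, with water as control. Germination energy was read on day 4 and germination rate on day 8 for wheat and day 7 for rice and corn, following GOST 12038-84, as the mean of four replicates.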

[2] = system: corn (Krasnodar 385 MV variety); test: Corn seed treatment with BHMPA salts: germinating power; format: in vivo
How it was run: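 Seeds (50 per Petri dish on two layers of filter paper) soaked 1 h in BHMPA or its Ca, Mg, Na, Co, Mn, Cu or Zn salts at 1·10^−6-1·10^−12%, with water controls. Germination energy read on day 4, germination on day 8 (wheat) or day 7 (rice, corn), as % means of four replicates. Germinating power taken as root and sprout length plus wet and dry mass per 100 seedlings.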

[3] = winter wheat Vershin, 1·10^−6% solution
[4] = winter wheat Vershin, 1·10^−7% solution
[5] = winter wheat Vershin, 1·10^−8% solution
[6] = winter wheat Vershin, 1·10^−9% solution
[7] = winter wheat Vershin, 1·10^−10% solution
[8] = winter wheat Vershin, 1·10^−11% solution
[9] = winter wheat Vershin, 1·10^−12% solution
[10] = winter wheat, comparative study vs Melaphen, 1·10^−9% solution
[11] = corn seeds, solution concentration 1 · 10^−6%, copper salt of BHMPA
[12] = corn seeds, solution concentration 1 · 10^−7%, copper salt of BHMPA
[13] = corn seeds, solution concentration 1 · 10^−8%, copper salt of BHMPA
[14] = corn seeds, solution concentration 1 · 10^−9%, copper salt of BHMPA
[15] = corn seeds, solution concentration 1 · 10^−10%, copper salt of BHMPA
[16] = corn seeds, solution concentration 1 · 10^−11%, copper salt of BHMPA
[17] = corn seeds, solution concentration 1 · 10^−12%, copper salt of BHMPA

Copper BHMPA Salt [Cu-salt]
Germination energy [1, 3]: 81.0%
Germination rate [1, 3]: 84.0%
Germination energy [1, 4]: 87.3%
Germination rate [1, 4]: 90.0%
Germination energy [1, 5]: 91.4%
Germination rate [1, 5]: 96.0%
Germination energy [1, 6]: 94.9%
Germination rate [1, 6]: 98.0% and 94.3%
Germination rate ([1]; winter wheat Vershin, 1·10^−9% solution, listed as Cu): 98.0%
Germination energy [1, 7]: 92.1%
Germination rate [1, 7]: 96.7%
Germination energy [1, 8]: 91.7%
Germination rate [1, 8]: 94.0%
Germination energy [1, 9]: 87.5%
Germination rate [1, 9]: 90.0%
Germination energy [1, 10]: 94.7%
Germination rate [1, 10]: 98.7%
optimum concentration for treating corn seeds before sowing ([2]; corn): 1·10^−8%
Length, root [2, 11]: 5.2 cm
Length, root, + % to control [2, 11]: 8%
Length, sprout [2, 11]: 4.2 cm
Length, sprout, + % to control [2, 11]: 20%
Mass, dry, root [2, 11]: 1.27 g/100 plantlings
Mass, dry, root, + % to control [2, 11]: 7%
Mass, dry, sprout [2, 11]: 1.01 g/100 plantlings
Mass, dry, sprout, + % to control [2, 11]: 2%
Mass, wet, root [2, 11]: 8.99 g/100 plantlings
Mass, wet, root, + % to control [2, 11]: 11%
Mass, wet, sprout [2, 11]: 7.21 g/100 plantlings
Mass, wet, sprout, + % to control [2, 11]: 15%
Length, root [2, 12]: 5.4 cm
Length, root, + % to control [2, 12]: 12.5%
Length, sprout [2, 12]: 4.6 cm
Length, sprout, + % to control [2, 12]: 31%
Mass, dry, root [2, 12]: 1.38 g/100 plantlings
Mass, dry, root, + % to control [2, 12]: 16%
Mass, dry, sprout [2, 12]: 1.09 g/100 plantlings
Mass, dry, sprout, + % to control [2, 12]: 10%
Mass, wet, root [2, 12]: 9.81 g/100 plantlings
Mass, wet, root, + % to control [2, 12]: 21%
Mass, wet, sprout [2, 12]: 7.94 g/100 plantlings
Mass, wet, sprout, + % to control [2, 12]: 27%
Length, root [2, 13]: 5.6 cm
Length, sprout [2, 13]: 4.8 cm
Length, sprout, + % to control [2, 13]: 37%
Mass, dry, root [2, 13]: 1.53 g/100 plantlings
Mass, dry, root, + % to control [2, 13]: 28.5%
Mass, dry, sprout [2, 13]: 1.17 g/100 plantlings
Mass, dry, sprout, + % to control [2, 13]: 18%
Mass, wet, root [2, 13]: 10.67 g/100 plantlings
Mass, wet, root, + % to control [2, 13]: 31%
Mass, wet, sprout [2, 13]: 8.82 g/100 plantlings
Mass, wet, sprout, + % to control [2, 13]: 41%
Length, root [2, 14]: 5.3 cm
Length, root, + % to control [2, 14]: 10%
Length, sprout [2, 14]: 4.7 cm
Length, sprout, + % to control [2, 14]: 34%
Mass, dry, root [2, 14]: 1.50 g/100 plantlings
Mass, dry, root, + % to control [2, 14]: 26%
Mass, dry, sprout [2, 14]: 1.13 g/100 plantlings
Mass, dry, sprout, + % to control [2, 14]: 14%
Mass, wet, root [2, 14]: 9.58 g/100 plantlings
Mass, wet, root, + % to control [2, 14]: 18%
Mass, wet, sprout [2, 14]: 8.75 g/100 plantlings
Mass, wet, sprout, + % to control [2, 14]: 40%
Length, root [2, 15]: 5.1 cm
Length, root, + % to control [2, 15]: 6%
Length, sprout [2, 15]: 4.4 cm
Length, sprout, + % to control [2, 15]: 26%
Mass, dry, root [2, 15]: 1.35 g/100 plantlings
Mass, dry, root, + % to control [2, 15]: 13%
Mass, dry, sprout [2, 15]: 1.07 g/100 plantlings
Mass, dry, sprout, + % to control [2, 15]: 8%
Mass, wet, root [2, 15]: 9.13 g/100 plantlings
Mass, wet, root, + % to control [2, 15]: 12%
Mass, wet, sprout [2, 15]: 7.88 g/100 plantlings
Mass, wet, sprout, + % to control [2, 15]: 26%
Length, root [2, 16]: 5.0 cm
Length, root, + % to control [2, 16]: 4%
Length, sprout [2, 16]: 3.9 cm
Length, sprout, + % to control [2, 16]: 11%
Mass, dry, root [2, 16]: 1.25 g/100 plantlings
Mass, dry, root, + % to control [2, 16]: 5%
Mass, dry, sprout [2, 16]: 0.97 g/100 plantlings
Mass, dry, sprout, + % to control [2, 16]: −2%
Mass, wet, root [2, 16]: 8.61 g/100 plantlings
Mass, wet, root, + % to control [2, 16]: 6%
Mass, wet, sprout [2, 16]: 6.79 g/100 plantlings
Mass, wet, sprout, + % to control [2, 16]: 9%
Length, root [2, 17]: 4.8 cm
Length, root, + % to control [2, 17]: 0%
Length, sprout [2, 17]: 3.7 cm
Length, sprout, + % to control [2, 17]: 6%
Mass, dry, root [2, 17]: 1.21 g/100 plantlings
Mass, dry, root, + % to control [2, 17]: 2%
Mass, dry, sprout [2, 17]: 0.92 g/100 plantlings
Mass, dry, sprout, + % to control [2, 17]: −7%
Mass, wet, root [2, 17]: 8.37 g/100 plantlings
Mass, wet, root, + % to control [2, 17]: 3%
Mass, wet, sprout [2, 17]: 6.35 g/100 plantlings
Mass, wet, sprout, + % to control [2, 17]: 2%
Length, root, + % to control ([2]; corn, 1·10^−8% solution): 16%
Length, sprout, + % to control ([2]; corn, 1·10^−8% solution): 37%
Mass, dry, root, + % to control ([2]; corn, 1·10^−8% solution): 28.5%
Mass, dry, sprout, + % to control ([2]; corn, 1·10^−8% solution): 18%
Mass, wet, root, + % to control ([2]; corn, 1·10^−8% solution): 31%
Mass, wet, sprout, + % to control ([2]; corn, 1·10^−8% solution): 41%
